The results in this text go back to patent publication US11358969B2, “Indole AHR inhibitors and uses thereof” (Ikena Oncology, Inc., priority 2017, dated 2022).

Like-named read-outs stand apart in the source and are kept apart here.

The target in one data set is T1, AHR (UniProt P35869).
T1 construct: IC50
T1 sequence (P35869 1-848): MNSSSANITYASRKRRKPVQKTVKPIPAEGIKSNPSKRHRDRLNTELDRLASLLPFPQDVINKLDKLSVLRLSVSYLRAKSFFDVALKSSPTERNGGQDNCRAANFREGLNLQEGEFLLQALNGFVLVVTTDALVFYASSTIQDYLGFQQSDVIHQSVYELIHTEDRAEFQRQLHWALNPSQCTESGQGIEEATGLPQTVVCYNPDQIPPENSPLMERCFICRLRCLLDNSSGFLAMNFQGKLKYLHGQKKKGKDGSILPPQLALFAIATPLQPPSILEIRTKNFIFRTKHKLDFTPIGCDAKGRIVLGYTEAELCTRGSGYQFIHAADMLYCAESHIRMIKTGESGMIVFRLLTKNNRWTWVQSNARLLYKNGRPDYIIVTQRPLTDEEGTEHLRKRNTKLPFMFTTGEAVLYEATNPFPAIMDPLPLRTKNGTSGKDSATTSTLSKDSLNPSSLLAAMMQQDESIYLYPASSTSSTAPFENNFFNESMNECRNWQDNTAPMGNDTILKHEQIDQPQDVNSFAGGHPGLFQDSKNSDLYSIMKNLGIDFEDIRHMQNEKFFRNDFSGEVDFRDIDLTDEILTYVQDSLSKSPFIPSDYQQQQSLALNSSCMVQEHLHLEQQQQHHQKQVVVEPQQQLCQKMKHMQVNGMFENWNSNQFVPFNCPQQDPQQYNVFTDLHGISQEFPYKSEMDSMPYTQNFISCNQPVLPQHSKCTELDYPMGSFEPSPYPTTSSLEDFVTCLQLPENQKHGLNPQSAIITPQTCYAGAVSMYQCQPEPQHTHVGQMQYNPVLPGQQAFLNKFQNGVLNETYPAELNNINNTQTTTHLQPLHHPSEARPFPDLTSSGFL
The experiment in a line: DRE-Luciferase Reporter Assay (Alternate Method) (Example 1B). The data set is classed as cell-based, murine or human. Conditions: cell line and AHR activating ligand not specified.

Data set [1] is described as follows: Mouse Pharmacokinetic Study (Example 1C). The data set is classed as in vivo. The conditions noted are these: mouse, plasma, CD-1 mice; for Vd: read-out: Vdss. On the procedure:
Formulations of compounds set forth in Table 4 were administered intravenously or orally via gavage to CD-1 mice. Typically, at 0.167, 0.5, 1, 2, 4, 6, 12, and 24 hours post-dose, blood was collected and processed to plasma by centrifugation and stored at −80° C. until analysis.
Internal standard was added to each sample prior to protein precipitation with acetonitrile. The precipitates were filtered through a Phree phospholipid removal filter plate and the samples were analyzed by LC/MS/MS. A standard curve was prepared in plasma from typically from 1.0 ng/mL to 3000 ng/mL and processed in the same manner as the samples. Sample analysis was typically performed on a suitable LC/MS/MS system fitted with an analytical UPLC column and compounds eluted from the analytical column with a gradient from 30-95% 0.1% formic acid (v/v) in ACN: 0.1% formic acid (v/v) in water. Mass spectrometric detection of test compound and the internal standard was performed by MRM in positive mode. The pharmacokinetics of each compound were analyzed by Phoenix WinNonlin software (Pharsight, St. Louis, Mo.) via non-compartmental analysis.

The nature of data set [2]: In Vitro Mouse liver S9 Metabolic Stability Assay (Example 1D). The data set is classed as in vitro ADME. Conditions: CD-1 mouse liver S9, 1 μM compound, 1 mg/mL S9 protein, 37° C., NADPH regenerating system, UDPGA, PAPS. The essentials:
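Compound at 1 μM final (0.1% DMSO) incubated at 37° C with pooled CD-1 mouse liver S9 (1 mg/mL protein) plus NADPH-regenerating system, UDPGA and PAPS. Samples at 0 and 60 min quenched in cold acetonitrile with internal standard; LC-MS/MS analyte/IS peak-area ratios give % remaining at 60 min.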

In the next data set the test system is Cyp1a1. The experiment in a line: In Vivo Mouse liver and spleen Cyp1a1 Modulation Assay (Example 1E). Set-up: species or system C57BL/6 mice. The conditions noted are these: po, 4 h, dose 30 mg/kg, with AHR agonist VAG539 30 mg/kg po, qPCR. On the procedure:
C57BL/6 mice, female, 6-8 weeks old, weighing approximately 18-20 g were purchased from Shanghai Lingchang Biological Technology Co., Ltd or other certified vendors and used in the studies. Animal husbandry, feeding and health conditions are according to animal welfare guidelines. VAG539 (30 mg/kg, po) was used as AHRagonist, and test compounds were formulated in suitable vehicles, typically 0.5% methylcellulose).
C57BL/6 mice (n=3 per group) were treated with AHR agonist alone or with AHR agonist and test compounds. Animals were sacrificed at 4 or 10 hours after treatment upon which their livers and spleens were collected and subsequently analyzed by qPCR. Normalized fold induction of cyp1a1 was determined by comparing mCYP1A1 and mGAPDH counts (ct) according to: normalized fold=2^−ΔΔCt. The percent inhibition was calculated according to: […]

Where [3] appears, read: read-out: Cyp1a1 inhibition, Liver, 4 h.
[4] abbreviates: read-out: Cyp1a1 inhibition, Spleen, 4 h.

For `CC(C)c1cnn2c(N[C@@H]3CCc4[nH]c5ccccc5c4C3)cc(-c3cncc(F)c3)nc12` [I-75a, (3R)—N-[5-(5-fluoro-3-pyridyl)-3-isopropyl-pyrazolo[1,5-a]pyrimidin-7-yl]-2,3,4,9-tetrahydro-1H-carbazol-3-amine], at AHR, the IC50 was more than 1.5 µM. Further, in data set [1] (po, 30 mg/kg), the bioavailability came to 51%, the peak concentration (Cmax) stood at 0.969 µg/mL, the time of peak concentration (Tmax) was 2 h and the half-life is 9.8 h. In addition, in data set [1] (iv, 3 mg/kg), the AUC(0-inf) was 2.27 µg·h/mL, the exposure AUC(0-t) turned out to be 2.67 µg·h/mL, the clearance is 0.864 L/h/kg and the half-life was 13.8 h. In data set [1] (iv, 3 mg/kg), the Vd was 13.7 L/kg. For the same compound, the “Mouse S9 Stability: % Remaining After 60 Minutes” value in data set [2] is reported as 65%. In the data set with Cyp1a1 (setting [3]), the inhibition at 30 mg/kg was determined as 55%.

`CC(=O)c1cnn2c(NCCc3c[nH]c4ccccc34)cc(-c3cncc(F)c3)nc12` [I-57, 1-[5-(5-Fluoro-3-pyridyl)-7-[2-(1H-indol-3-yl)ethylamino]pyrazolo[1,5-a]pyrimidin-3-yl]ethanone] came in with an IC50 against AHR of less than 0.5 µM. Moreover, the inhibition at 30 mg/kg was 77% in the data set on Cyp1a1 (setting [3]) and 66% in the data set with Cyp1a1 (setting [4]).

On AHR, `CN(C)c1cnn2c(N[C@H]3Cc4ccc(O)cc4C3)cc(-c3cncc(F)c3)nc12` [I-204b, (2S)-2-[[3-(dimethylamino)-5-(5-fluoro-3-pyridyl)pyrazolo[1,5-a]pyrimidin-7-yl]amino]indan-5-ol] had an IC50 of less than 0.5 µM. In data set [1] (po, 30 mg/kg), this compound had a bioavailability of 2%, a total exposure AUC(0-inf) of 0.067 µg·h/mL, an exposure AUC(0-t) of 0.063 µg·h/mL and a Cmax of 0.055 µg/mL. In data set [1] (po, 30 mg/kg), the Tmax worked out at 0.2 h and the half-life was 3.2 h. In addition, in data set [1] (iv, 3 mg/kg), the AUC(0-inf) worked out at 0.455 µg·h/mL, the exposure AUC(0-t) worked out at 0.454 µg·h/mL, the clearance stood at 6.6 L/h/kg and the half-life is 0.9 h. For the same compound, the Vd in data set [1] (iv, 3 mg/kg) was 4 L/kg. In data set [2], the “Mouse S9 Stability: % Remaining After 60 Minutes” value is on record as 0%.

Compound `O=C(c1cnn2c(NCCc3c[nH]c4ccccc34)cc(-c3cncc(F)c3)nc12)N1CCOCC1` [I-65, [5-(5-Fluoro-3-pyridyl)-7-[2-(1H-indol-3-yl)ethylamino]pyrazolo[1,5-a]pyrimidin-3-yl]-morpholino-methanone] came in with a 50% inhibitory concentration (IC50) at AHR of less than 0.5 µM. In data set [1] (po, 30 mg/kg), this compound had a bioavailability of 7%, an AUC(0-inf) of 0.373 µg·h/mL, an AUC(0-t) of 0.37 µg·h/mL and a Cmax of 0.574 µg/mL. Further, in data set [1] (po, 30 mg/kg), the Tmax amounted to 0.2 h and the half-life is 0.8 h. In data set [1] (iv, 3 mg/kg), this compound had an AUC(0-inf) of 0.537 µg·h/mL, an AUC(0-t) of 0.522 µg·h/mL, a clearance of 5.59 L/h/kg and a half-life of 0.7 h. In addition, the Vd in data set [1] (iv, 3 mg/kg) stood at 2.7 L/kg. The “Mouse S9 Stability: % Remaining After 60 Minutes” value in data set [2] was 0%.

Compound `Fc1cncc(-c2cc(OC3CCCC3)nc(NCCc3c[nH]c4ccccc34)n2)c1` [I-59, 4-(Cyclopentoxy)-6-(5-fluoro-3-pyridyl)-N-[2-(1H-indol-3-yl)ethyl]pyrimidin-2-amine] returned an IC50 at AHR of less than 0.5 µM. Moreover, in data set [1] (po, 30 mg/kg), the bioavailability came out at 22%, the AUC(0-inf) turned out to be 2.13 µg·h/mL, the AUC(0-t) turned out to be 2.11 µg·h/mL and the concentration peaked (Cmax) at 0.719 µg/mL. Moreover, in data set [1] (po, 30 mg/kg), the Tmax amounted to 0.5 h and the half-life was 4.3 h. In data set [1] (iv, 3 mg/kg), this compound gave an area under the curve AUC(0-inf) of 0.949 µg·h/mL, an AUC(0-t) of 0.925 µg·h/mL, a clearance of 3.18 L/h/kg and a half-life of 6.6 h. For the same compound, in data set [1] (iv, 3 mg/kg), the Vd was found to be 11.2 L/kg. Besides, the “Mouse S9 Stability: % Remaining After 60 Minutes” value in data set [2] was found to be 11%.

Turning to `C[C@@H](O)c1cnn2c(N[C@@H]3CCc4[nH]c5ccccc5c4C3)cc(-c3cncc(F)c3)nc12` [I-198a, (1R)-1-[5-(5-Fluoro-3-pyridyl)-7-[[(3R)-2,3,4,9-tetrahydro-1H-carbazol-3-yl]amino]pyrazolo[1,5-a]pyrimidin-3-yl]ethanol], the concentration for half-maximal inhibition (IC50) against AHR is less than 0.5 µM. Moreover, in data set [1] (po, 30 mg/kg), the bioavailability turned out to be 52%, the area under the curve AUC(0-inf) was found to be 4.05 µg·h/mL, the AUC(0-t) is 3.96 µg·h/mL and the concentration peaked (Cmax) at 0.721 µg/mL. For the same compound, in data set [1] (po, 30 mg/kg), the time to peak (Tmax) came out at 1 h and the half-life was 4.2 h. Moreover, in data set [1] (iv, 3 mg/kg), the AUC(0-inf) turned out to be 0.772 µg·h/mL, the AUC(0-t) stood at 0.765 µg·h/mL, the clearance stood at 3.89 L/h/kg and the half-life is 4.3 h. In data set [1] (iv, 3 mg/kg), the Vd stood at 12.1 L/kg. For the same compound, the “Mouse S9 Stability: % Remaining After 60 Minutes” value in data set [2] came to 30%.

Take `C[C@H](O)c1cnn2c(NCCc3c[nH]c4ccccc34)cc(-c3cncc(F)c3)nc12` [I-222b, (1S)-1-[5-(5-Fluoro-3-pyridyl)-7-[2-(1H-indol-3-yl)ethylamino]pyrazolo[1,5-a]pyrimidin-3-yl]ethanol]: at AHR, the IC50 is less than 0.5 µM. Also, in data set [1] (po, 30 mg/kg), the bioavailability was found to be 51%, the AUC(0-inf) was 2.87 µg·h/mL, the AUC(0-t) was found to be 2.87 µg·h/mL and the highest level (Cmax) was 2.17 µg/mL. Further, in data set [1] (po, 30 mg/kg), the time to peak (Tmax) was found to be 0.2 h and the half-life was 3.3 h. In data set [1] (iv, 3 mg/kg), the area under the curve AUC(0-inf) was determined as 0.567 µg·h/mL, the exposure AUC(0-t) was 0.564 µg·h/mL, the clearance was 5.29 L/h/kg and the half-life was 1.8 h. Besides, in data set [1] (iv, 3 mg/kg), the Vd amounted to 2 L/kg. Further, the “Mouse S9 Stability: % Remaining After 60 Minutes” value in data set [2] is given as 0%.

In turn, `CC(C)c1cnn2c(NCCc3c[nH]c4ccccc34)cc(-c3cccnc3)nc12` [I-46, N-[2-(1H-Indol-3-yl)ethyl]-3-isopropyl-5-(3-pyridyl)pyrazolo[1,5-a]pyrimidin-7-amine] yielded an IC50 against AHR of less than 0.5 µM. For the same compound, the inhibition at 30 mg/kg with Cyp1a1 (setting [3]) is 96%; in the data set with Cyp1a1 (setting [4]) it was 94%.

With `Cc1cnn2c(N[C@H]3Cc4ccc(O)cc4C3)cc(-c3cncc(F)c3)nc12` [I-219, (2S)-2-[[5-(5-fluoro-3-pyridyl)-3-methyl-pyrazolo[1,5-a]pyrimidin-7-yl]amino]indan-5-ol], at AHR, the half-maximal inhibitory concentration (IC50) was less than 0.5 µM. In data set [1] (po, 30 mg/kg), the bioavailability was found to be 2%, the AUC(0-inf) is 0.215 µg·h/mL, the AUC(0-t) worked out at 0.132 µg·h/mL and the Cmax is 0.0489 µg/mL. For the same compound, the Tmax in data set [1] (po, 30 mg/kg) came out at 0.2 h. In data set [1] (iv, 3 mg/kg), this compound had an AUC(0-inf) of 0.682 µg·h/mL, an area under the curve AUC(0-t) of 0.678 µg·h/mL, a clearance of 4.4 L/h/kg and a half-life of 0.7 h. Moreover, in data set [1] (iv, 3 mg/kg), the Vd worked out at 2.4 L/kg. Besides, the “Mouse S9 Stability: % Remaining After 60 Minutes” value in data set [2] is recorded as 5%.
